Key:
[1] = target: T1, Avi-KRAS G12D (1-169) GppNHp/RAF1 RBD-3×FLAG (52-151) (Homo sapiens, UniProt P01116, G12D); test: HTRF Raf1-KRAS G12D-GppNHp disruption assay; assay type: biochemical; details: 1 h incubation
T1 construct: Avi-KRAS G12D (1-169) GppNHp
Experimental: (§1) The HTRF assay employed the following protocol:
(§2) Compounds were dispensed in assay plate (384-well, Grenier Bione #784075) using Echo (model 555) with dose response settings: 200 nL final volume, titration from 100 μM as a 10-point dilution series. Protein mix was prepared in assay buffer, and dispensed on plates, 10 μL per well, then incubated for 1 h at room temperature, with 700 rpm shaking. Reagents mix was prepared and dispensed on plates, 10 μL per well, then incubated for 1 h at room temperature, with 700 rpm shaking.
(§3) Plates were analyzed on an Envision plate reader using the following setting: Excitation 320 nm, Bandwidth […]; Emission 615 nm, Bandwidth […], Gain 100%, Flashes 100, Lag 60 μs. Data was reported as percentage of activity, with DMSO as 100%. Data was plotted and analyzed using Prism 8.

[2] = target: T2, Avi-KRAS G12D/Q25A (1-169) GppNHp/3×FLAG-PI3KCA (157-299) (Homo sapiens, UniProt P01116, G12D/Q25A); test: HTRF PI3KCA-KRAS G12D/Q25A-GppNHp disruption assay; assay type: biochemical; details: 1 h incubation
T2 construct: Avi-KRAS G12D/Q25A (1-169) GppNHp
T2 sequence (P01116 1-169 isoform P01116-2 G12D/Q25A limits assumed): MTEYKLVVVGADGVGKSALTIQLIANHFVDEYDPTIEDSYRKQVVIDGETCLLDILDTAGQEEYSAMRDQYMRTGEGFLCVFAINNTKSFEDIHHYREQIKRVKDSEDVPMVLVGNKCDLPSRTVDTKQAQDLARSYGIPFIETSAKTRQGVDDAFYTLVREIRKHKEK
Experimental: as §1, §2, §3

T1 sequence (P01116 1-169 isoform P01116-2 G12D limits assumed): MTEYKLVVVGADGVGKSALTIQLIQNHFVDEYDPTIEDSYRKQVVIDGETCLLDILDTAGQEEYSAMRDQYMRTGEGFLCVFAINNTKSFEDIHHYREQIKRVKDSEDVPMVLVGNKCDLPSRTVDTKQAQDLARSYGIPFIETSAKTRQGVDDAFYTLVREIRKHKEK

SMILES	IC50 [1]	IC50 [2]
CN1CCC[C@H]1COc1nc(N[C@H]2C[C@H](N)C2)c2cc(Cl)c(-c3ccc(F)c4sc(N)nc34)c(F)c2n1 (atropisomer, axis not shown) [Compound 83]	1 to 10 µM	1 to 10 µM
CN(c1nc(OCC23CCCN2CCC3)nc2c(F)c(-c3ccc(F)c4sc(N)nc34)c(C(F)(F)F)cc12)[C@H]1C[C@@H](N)C1 (atropisomer, axis not shown) [Compound 250]	0.1 to 1 µM	0.1 to 1 µM
CN(c1nc(OCC23CCCN2CCC3)nc2c(F)c(-c3ccc(F)c4sc(N)nc34)c(C(F)(F)F)cc12)[C@H]1C[C@@H]2CC[C@H]1N2 (atropisomer, axis not shown) [Compound 270]	1 to 10 µM	10 to 30 µM
CN(c1nc(OCC23CCCN2CCC3)nc2c(F)c(-c3ccc(F)c4sc(N)nc34)c(C(F)(F)F)cc12)[C@H]1C[C@H]2CC[C@@H]1N2 (atropisomer, axis not shown) [Compound 271]	0.1 to 1 µM	1 to 10 µM
CN(c1nc(OCC23CCCN2CCC3)nc2c(F)c(-c3ccc(F)c4sc(N)nc34)c(C(F)(F)F)cc12)[C@@H]1CCN(C(=O)CN)C1 (atropisomer, axis not shown) [Compound 277]	1 to 10 µM	1 to 10 µM
CN(c1nc(OCC23CCCN2CCC3)nc2c(F)c(-c3ccc(F)c4sc(N)nc34)c(C(F)(F)F)cc12)[C@@H]1CCN(C(N)=O)C1 (atropisomer, axis not shown) [Compound 278]	1 to 10 µM	1 to 10 µM
CN(c1nc(OCC23CCCN2CCC3)nc2c(F)c(-c3ccc(F)c4sc(N)nc34)c(C(F)(F)F)cc12)[C@@H]1CCN(C(N)=O)C1 (atropisomer, axis not shown) [Compound 279]	10 to 30 µM	1 to 10 µM
Nc1nc2c(-c3c(C(F)(F)F)cc4c(N[C@H]5C[C@@H]6CC[C@H]5N6)nc(OCC56CCCN5CCC6)nc4c3F)ccc(F)c2s1 (atropisomer, axis not shown) [Compound 287]	1 to 10 µM	1 to 10 µM
CN(c1nc(OCC23CCCN2CCC3)nc2c(F)c(-c3ccc(F)c4sc(N)nc34)c(C(F)(F)F)cc12)[C@H]1CC[C@@H](N)CC1 (atropisomer, axis not shown) [Compound 294]	0.1 to 1 µM	1 to 10 µM
CN(c1nc(OCC23CCCN2CCC3)nc2c(F)c(-c3ccc(F)c4sc(N)nc34)c(C(F)(F)F)cc12)[C@@H]1CCNC1 (single isomer, unassigned) [Compound 238]	1 to 10 µM	1 to 10 µM
Nc1nc2c(-c3c(C(F)(F)F)cc4c(N5CCNCC5)ncnc4c3F)ccc(F)c2s1 [Compound 65, 7-fluoro-4-(8-fluoro-4-(piperazin-1-yl)-6-(trifluoromethyl)quinazolin-7-yl)benzo[d]thiazol-2-amine]	10 to 30 µM	10 to 30 µM
C#Cc1cc2c(N3CCNCC3)ncnc2c(F)c1-c1ccc(F)c2sc(N)nc12 [Compound 66, 4-(6-ethynyl-8-fluoro-4-(piperazin-1-yl)quinazolin-7-yl)-7-fluorobenzo[d]thiazol-2-amine]	10 to 30 µM	10 to 30 µM
CC(=O)N1CC(Nc2nc(OC[C@@H]3CCCN3C)nc3c(F)c(-c4ccc(F)c5sc(N)nc45)c(Cl)cc23)C1 [Compound 67]	10 to 30 µM	10 to 30 µM
CO[C@@H]1CN(C)C[C@H]1Oc1nc(NC2CNC2)c2cc(Cl)c(-c3ccc(F)c4sc(N)nc34)c(F)c2n1 [Compound 68]	10 to 30 µM	10 to 30 µM
CO[C@@H]1C[C@@H](COc2nc(N3CCNCC3)c3cc(Cl)c(-c4ccc(F)c5sc(N)nc45)c(F)c3n2)N(C)C1 [Compound 69]	10 to 30 µM	10 to 30 µM
CNCCNc1nc(OC[C@@H]2CCCN2C)nc2c(F)c(-c3ccc(F)c4sc(N)nc34)c(Cl)cc12 [Compound 70]	1 to 10 µM	10 to 30 µM
CN1CCC[C@H]1COc1nc(N2CC3CNCC3C2)c2cc(Cl)c(-c3ccc(F)c4sc(N)nc34)c(F)c2n1 (stereo partly drawn) [Compound 71]	10 to 30 µM	10 to 30 µM
CO[C@@H]1C[C@@H](COc2nc(NC3CNC3)c3cc(Cl)c(-c4ccc(F)c5sc(N)nc45)c(F)c3n2)N(C)C1 [Compound 73]	1 to 10 µM	10 to 30 µM
CN(C)CCNc1nc(OC[C@@H]2CCCN2C)nc2c(F)c(-c3ccc(F)c4sc(N)nc34)c(Cl)cc12 [Compound 75]	1 to 10 µM	10 to 30 µM
CC(=O)NCCNc1nc(OC[C@@H]2CCCN2C)nc2c(F)c(-c3ccc(F)c4sc(N)nc34)c(Cl)cc12 [Compound 76]	10 to 30 µM	10 to 30 µM
C[C@H]1CNCCN1c1nc(OC[C@@H]2CCCN2C)nc2c(F)c(-c3ccc(F)c4sc(N)nc34)c(Cl)cc12 [Compound 78]	10 to 30 µM	10 to 30 µM
CN1CCC[C@H]1COc1nc(NC2CNC2)c2cnc(-c3ccc(F)c4sc(N)nc34)c(F)c2n1 [Compound 80]	10 to 30 µM	10 to 30 µM
CN1CCC[C@H]1COc1nc(NCCN)c2cnc(-c3ccc(F)c4sc(N)nc34)c(F)c2n1 [Compound 81]	10 to 30 µM	10 to 30 µM
Nc1nc2c(-c3c(Cl)cc4c(N5CCNCC5)nc(OCC56CCCN5CCC6)nc4c3F)ccc(F)c2s1 [Compound 82]	1 to 10 µM	1 to 10 µM

SMILES	IC50 [1]	IC50 [2]
C[C@H]1CN(c2nc(OC[C@@H]3CCCN3C)nc3c(F)c(-c4ccc(F)c5sc(N)nc45)c(Cl)cc23)CCN1 [Compound 84]	10 to 30 µM	10 to 30 µM
CN1CCC[C@H]1COc1nc(N2CC3(CCCN3)C2)c2cc(Cl)c(-c3ccc(F)c4sc(N)nc34)c(F)c2n1 [Compound 85]	10 to 30 µM	10 to 30 µM
CN1CCC[C@H]1COc1nc(NCCN)c2cc(Cl)c(-c3cccc4nc(N)n(C)c34)c(F)c2n1 [Compound 86]	10 to 30 µM	10 to 30 µM
CNc1nc2c(-c3c(Cl)cc4c(NCCN)nc(OC[C@@H]5CCCN5C)nc4c3F)ccc(F)c2s1 [Compound 87]	10 to 30 µM	10 to 30 µM
Nc1nc2c(-c3c(C(F)(F)F)cc4c(NC5CNC5)ncnc4c3F)ccc(F)c2s1 [Compound 88]	10 to 30 µM	10 to 30 µM
Nc1nc2c(-c3c(Cl)cc4c(NC5CNC5)nc(O)nc4c3F)ccc(F)c2s1 [Compound 90]	10 to 30 µM	10 to 30 µM
CN1CCC[C@H]1COc1nc(NC2CCNCC2)c2cc(Cl)c(-c3ccc(F)c4sc(N)nc34)c(F)c2n1 [Compound 91]	1 to 10 µM	1 to 10 µM
CN1CCC[C@H]1COc1nc(NCCN)c2cc(Cl)c(-c3cccc4oc(N)nc34)c(F)c2n1 [Compound 92]	10 to 30 µM	10 to 30 µM
CN1CCC[C@H]1COc1nc(NCCN)c2cc(Cl)c(-c3cccc4nc(N)cn34)c(F)c2n1 [Compound 93]	10 to 30 µM	10 to 30 µM
N#Cc1cc2c(N3CCNCC3)ncnc2c(F)c1-c1ccc(F)c2sc(N)nc12 [Compound 94, 7-(2-amino-7-fluorobenzo[d]thiazol-4-yl)-8-fluoro-4-(piperazin-1-yl)quinazoline-6-carbonitrile]	10 to 30 µM	10 to 30 µM
CN1CCC[C@H]1COc1nc(N2C[C@H]3NCC[C@H]32)c2cc(Cl)c(-c3ccc(F)c4sc(N)nc34)c(F)c2n1 [Compound 95]	10 to 30 µM	10 to 30 µM
CN1CCC[C@H]1COc1nc(N2CC3(CCN3)C2)c2cc(Cl)c(-c3ccc(F)c4sc(N)nc34)c(F)c2n1 [Compound 96]	10 to 30 µM	10 to 30 µM
CN1CCC[C@H]1COc1nc(NC2CN(C(=O)CN)C2)c2cc(Cl)c(-c3ccc(F)c4sc(N)nc34)c(F)c2n1 [Compound 97]	1 to 10 µM	10 to 30 µM
CN1CCC[C@H]1COc1nc(NC2CCNC2)c2cc(Cl)c(-c3ccc(F)c4sc(N)nc34)c(F)c2n1 (stereo partly drawn) [Compound 98]	1 to 10 µM	1 to 10 µM
CN1CCC[C@H]1COc1nc(NC2CCCNC2)c2cc(Cl)c(-c3ccc(F)c4sc(N)nc34)c(F)c2n1 (stereo partly drawn) [Compound 99]	1 to 10 µM	10 to 30 µM
CN1CCC[C@H]1COc1nc(NC2CN(C(=O)CN)C2)c2cc(C(F)(F)F)c(-c3ccc(F)c4sc(N)nc34)c(F)c2n1 [Compound 130]	1 to 10 µM	
NC(=O)N1CC(Nc2nc(OCC34CCCN3CCC4)nc3c(F)c(-c4ccc(F)c5sc(N)nc45)c(-c4ccoc4)cc23)C1 [Compound 167]	10 to 30 µM	
Nc1nc2c(-c3c(C(F)(F)F)cc4c(N5CCNCC5)nc(OC[C@@H]5CCCN5CCF)nc4c3F)ccc(F)c2s1 [Compound 168]	10 to 30 µM	
Nc1nc2c(-c3c(C(F)(F)F)cc4c(N5CCNCC5)nc(OC[C@]56CCCN5C[C@H](F)C6)nc4c3F)ccc(F)c2s1 [Compound 169]	10 to 30 µM	
CN(c1nc(OCC23CCCN2CCC3)nc2c(F)c(-c3ccc(F)c4sc(N)nc34)c(C(F)(F)F)cc12)C1CN(C(=O)CN)C1 [Compound 171]	1 to 10 µM	
Nc1nc2c(-c3c(C(F)(F)F)cc4c(N5CCNCC5)nc(OC[C@@H]5CCCN5CC(F)F)nc4c3F)ccc(F)c2s1 [Compound 172]	10 to 30 µM	
CN(c1nc(OCC23CCCN2CCC3)nc2c(F)c(-c3ccc(F)c4sc(N)nc34)c(C(F)(F)F)cc12)C1CN(C(N)=O)C1 [Compound 173]	1 to 10 µM	
NCC(=O)N1CCN(c2nc(OC[C@@H]3CCCN3CC(F)F)nc3c(F)c(-c4ccc(F)c5sc(N)nc45)c(C(F)(F)F)cc23)CC1 [Compound 193]	10 to 30 µM	
Nc1nc2c(-c3c(-c4ccoc4)cc4c(N5CC6CC(C5)N6)nc(OCC56CCCN5CCC6)nc4c3F)ccc(F)c2s1 [Compound 194]	1 to 10 µM	

Reference: patent US20240246954A1, “COMPOSITIONS AND METHODS FOR INHIBITING KRAS” (TheRas, Inc., priority 2021, published 2024)
